Test results published in patent publication US20030180947A1, “Circadian control of stem/progenitor cell self-renewal and differentiation and of clock controlled gene expression” (priority 2001, published 2003).
“Also recorded” adds a separate entry of the source.

What was measured:
[1] = test system: mPer1 expression in the lin− cells; test: Effect on mPer1 expression in lin− bone marrow cells (relative quantitative RT-PCR); type: cell-based, mouse; conditions: 200 nM dexamethasone or 1 μM PMA, 1 or 2 hours, vs ethanol control
Description: (§1) Bone marrow cells were incubated with ACK lysing buffer (0.15M NH4Cl, 1 mM KHCO3 and 0.1 mM Na2EDTA; pH7.2) at room temperature for 4 minutes to remove red blood cells. The lin^− (lineage marker-negative) bone marrow cells were obtained by depleting lineage marker-positive cells using the MACS magnetic separation system (Miltenyi Biotec, Auburn, Calif.) according to the manufacturer's instructions. The antibodies used were PE-labeled rat anti-mouse Gr-1, TER119, B220, CD4, CD8, and Mac-1 monoclonal antibodies (all from BD PharMingen, San Diego, Calif.). Briefly, the cells were incubated with the antibody cocktail for the lineage markers described above at 6-10° C. for 15 minutes. After two washes with 1×phosphate-buffered saline (PBS; Sigma, St. Louis, Mo.) supplemented with 0.5% FBS (Hyclone), the cells were incubated with anti-PE antibody-coated magnetic beads (Miltenyi Biotec) at 6-10° C. for 15 minutes. […]
(§2) For each RT-PCR experiment, samples from six time points were analyzed at the same time. […]
(§3) Within each PCR experiment, the linear range of amplification was first determined using cDNA pooled from 6 time points. […]
(§4) As a negative control, the products of the RT reactions, without reverse transcriptase, were subjected to the same PCR amplification. […] Their relative quantities were determined by using the Image-Pro Plus software (Media Cybernetics). […]

[2] = test system: mPer2 expression in the lin− cells; test: Effect on mPer2 expression in lin− bone marrow cells (relative quantitative RT-PCR); type: cell-based, mouse; conditions: 200 nM dexamethasone or 1 μM PMA, 1 or 2 hours, vs ethanol control
Description: as §1, §2, §3, §4

Rat-1 fibroblasts = conditions: cultured Rat-1 fibroblasts; Balsalobre et al. 2000; cited from earlier work
mper1 promoter = test: Per1-luciferase reporter (pGL3-mPer1-7.2 kb) in transfected NIH 3T3 cells; type: cell-based, mouse; conditions: NIH 3T3, pGL3-mPer1-7.2 kb; 10^−6 M; 7 hours; FIG. 14
Source text: FIG. 14 is a bar graph illustrating the effects of neurotransmitter analog treatment on NIH 3T3 cells transfected with pGL3-mPer1-7.2kb, which contains luciferase under control of a 7.2 kb region of the mper1 promoter. Cells were exposed to 10^−6 M forskolin as a positive control, 10^−6 M isoproterenol (a beta-adrenergic agonist), 10^−6 M propranolol (a beta-adrenergic antagonist), 10^−6 M phenylephrine (an alpha-adrenergic agonist), and 10^−6 M pentolamine (an alpha-adrenergic antagonist) for 7 hours.
H1299 cells were maintained in RPMI1640 (Gibco) with 10% FBS (Hyclone). NIH3T3 cells were maintained in DMEM (Gibco) with 10% FBS (Hyclone). The day before transfection, 3×10^5 cells/well were plated onto six-well plates. Cells were transfected with 500 ng of each expression plasmid, 100 ng of the firefly luciferase reporter construct and 2 ng of the Renilla luciferase control plasmid (pRL-SV40; Promega) using SuperFect transfection reagent (Qiagen) following the manufacturer's instructions. The Renilla luciferase control plasmid was cotrasfected to normalize transfection efficiency. When expression plasmids were omitted, same amount of the pcDNA3 plasmid was used to substitute the expression plasmids. Forty hours after transfection, cells were washed once with 1×PBS (Sigma) and lysed with 500 μl of passive lysis buffer (Promega). Luciferase activity of the cell lysate was assayed with the Dual-Luciferase Reporter Assay System (Promega) using a luminometer (Optocomp1; MGM Instruments) as recommended by the manufacturer.
A Per1-luciferase reporter plasmid was constructed essentially as described above, using a 7.2 kb fragment of the promoter region from mper1, forming pGL3-mPer1-7.2 kb. NIH 3T3 cells were transfected with pGL3-mPer1-7.2 kb as described above and cells were exposed to 10^−6 M forskolin as a positive control, 10^−6 M isoproterenol (a beta-adrenergic agonist), 10^−6 M propranolol (a beta-adrenergic antogonist), 10^−6 M phenylephrine (an alpha-adrenergic agonist), and 10^−6 M pentolamine (an alpha-adrenergic antagonist). Cells were exposed to the neurotransmitters for 7 hours and luciferase activity was measured as described above.

[3] = target: T1, mLATS2 fused to the GAL4 DNA binding domain (pGBKT7-mLATS2) (mouse, UniProt P04386 1-147; Q7TSJ6 1-1042); test: yeast two-hybrid assay
T1 construct: Yeast two-hybrid construct made by inserting the Bsm I-Xho I fragment of pcDNA3-mLATS2 into pGBKT7-mLATS2b; also called mLATS2/2b

Molecule	expression levels relative to the forskolin positive control (mper1 promoter)	luciferase activity relative to control (mper1 promoter)	further results
CCCCCCCCCCCCCC(=O)O[C@@H]1[C@@H](C)[C@@]2(O)[C@@H](C=C(CO)C[C@]3(O)C(=O)C(C)=C[C@@H]23)[C@@H]2C(C)(C)[C@]12OC(C)=O [PMA, phorbol-12-myristate-13-acetate]	–	–	mPer1 expression [1]: not affected; mPer2 expression [2]: neither dexamethasone nor PMA had a significant effect; Per1 induction and circadian gene expression (Rat-1 fibroblasts): induce mPer1 expression and elicit circadian gene expression; also recorded: induce immediate Per1 up-regulation and trigger circadian expression
CC(C)NCC(O)c1ccc(O)c(O)c1 (stereo not shown) [isoproterenol]	slightly diminished	increased luciferase activity	–
Cc1ccc(N(CC2=NCCN2)c2cccc(O)c2)cc1 [pentolamine]	slightly diminished	increased luciferase activity	–
CNC[C@H](O)c1cccc(O)c1 [phenylephrine]	slightly diminished	increased luciferase activity	–
mRBT1C76 fused to the GAL4 activation domain (pGADT7-mRBT1C76) (other, UniProt P04386 768-881, looked up, Yeast two-hybrid construct; also called C-terminal 76 amino acids of mRBT1) ANFNQSGNIADSSLSFTFTNSSNGPNLITTQTNSQALSQPIASSNVHDNFMNNEITASKIDDGNNSKPLSPGWTDQTAYNAFGITTGMFNTTTMDDVYNYLFDDEDTPPNPKKEPQNEIVSQADPVFLEALSSRYLGDSGLDDFFLDIDTSAVEKDVALPPPEPPHSLFCSPGSWEWNELDHIMEIILGS	–	–	binding result [3]: no binding
